Reference: ChEMBL document CHEMBL4602663, “Isocadiolides A-H: Polybrominated Aromatics from a Synoicum sp. Ascidian” (J Nat Prod, 2020)

How the values were obtained:
Enterococcus faecalis = test: Antibacterial activity against Enterococcus faecalis ATCC 19433 assessed as reduction in microbial growth; type: functional
A549 = test: Cytotoxicity against human A549 cells assessed as reduction in cell viability after 72 hrs by sulforhodamine B assay; type: functional, cell-based; conditions: A549, 72 h
Staphylococcus aureus = test: Antibacterial activity against Staphylococcus aureus ATCC 6538P assessed as reduction in microbial growth; type: functional
Isocitrate lyase = Isocitrate lyase (Candida albicans, UniProt Q9P8Q7); test: Inhibition of Candida albicans ICL assessed as reduction in glyoxylate phenylhydrazone formation using M threo-DL(+)isocitrate as substrate incubated for 30 mins by spectrophotometric method
Isocitrate lyase, sequence (Q9P8Q7 whole entry): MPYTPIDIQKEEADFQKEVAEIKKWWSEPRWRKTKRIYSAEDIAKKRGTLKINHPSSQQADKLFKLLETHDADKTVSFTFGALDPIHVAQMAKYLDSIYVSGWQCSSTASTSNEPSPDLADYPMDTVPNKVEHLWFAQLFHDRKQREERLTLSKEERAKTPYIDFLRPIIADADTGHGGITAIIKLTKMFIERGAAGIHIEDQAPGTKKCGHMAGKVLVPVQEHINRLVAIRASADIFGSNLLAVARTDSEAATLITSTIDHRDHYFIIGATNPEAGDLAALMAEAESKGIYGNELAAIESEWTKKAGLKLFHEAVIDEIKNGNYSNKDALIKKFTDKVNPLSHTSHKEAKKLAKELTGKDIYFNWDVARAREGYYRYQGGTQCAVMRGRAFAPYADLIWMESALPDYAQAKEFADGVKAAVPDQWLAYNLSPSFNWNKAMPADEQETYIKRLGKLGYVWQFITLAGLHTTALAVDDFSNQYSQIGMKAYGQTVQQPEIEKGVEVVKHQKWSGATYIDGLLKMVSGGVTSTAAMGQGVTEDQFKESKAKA

Enterococcus faecium = test: Antibacterial activity against Enterococcus faecium ATCC 19434 assessed as reduction in microbial growth; type: functional
Klebsiella pneumoniae = test: Antibacterial activity against Klebsiella pneumoniae ATCC 10031 assessed as reduction in microbial growth; type: functional
Sortase A = molecular target: T1, Sortase A (Staphylococcus aureus, UniProt Q9S446); test: Inhibition of Staphylococcus aureus sortase A
T1 sequence (Q9S446 whole entry): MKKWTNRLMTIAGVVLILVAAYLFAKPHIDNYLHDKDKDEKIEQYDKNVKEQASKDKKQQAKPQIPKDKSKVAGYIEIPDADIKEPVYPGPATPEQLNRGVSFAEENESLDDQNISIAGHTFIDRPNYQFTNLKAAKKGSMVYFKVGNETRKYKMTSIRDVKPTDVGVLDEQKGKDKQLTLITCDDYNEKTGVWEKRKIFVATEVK

Salmonella enterica = test: Antibacterial activity against Salmonella enterica ATCC 14028 assessed as reduction in microbial growth; type: functional
K562 = test: Cytotoxicity against human K562 cells assessed as reduction in cell viability after 72 hrs by sulforhodamine B assay; type: functional, cell-based; conditions: K562, 72 h
Proteus hauseri = test: Antibacterial activity against Proteus hauseri NBRC 3851 assessed as reduction in microbial growth; type: functional

Structure (SMILES)	MIC (Enterococcus faecalis) [µg/mL]	IC50 (A549) [µM]	MIC (Staphylococcus aureus) [µg/mL]	IC50 (Isocitrate lyase) [µM]	MIC (Enterococcus faecium) [µg/mL]	MIC (Klebsiella pneumoniae) [µg/mL]	IC50 (Sortase A) [µM]	MIC (Salmonella enterica) [µg/mL]	IC50 (K562) [µM]	MIC (Proteus hauseri) [µg/mL]
O=C(O)C1=C(c2ccc(O)c(Br)c2)C(=O)C(c2cc(Br)c(O)c(Br)c2)(c2cc(Br)c(O)c(Br)c2)C1=O	> 128	> 10	> 128	54	> 128	> 128	> 159	> 128	> 10	> 128
COc1ccc2cc3[n+](cc2c1OC)CCc1cc2c(cc1-3)OCO2 [BERBERINE CHLORIDE]	–	–	–	–	–	–	102	–	–	–
COc1c(Br)cc([C@H](O)C2=C(c3ccc(O)c(Br)c3)/C(=C/c3cc(Br)c(O)c(Br)c3)OC2=O)cc1Br	8	–	2	> 159	> 128	> 128	> 159	4	–	2
COC(=O)C1=C(c2cc(Br)c(O)c(Br)c2)[C@](OC)(c2cc(Br)c(O)c(Br)c2)O[C@@]1(C(=O)OC)c1cc(Br)c(O)c(Br)c1	> 128	> 10	64	104	> 128	> 128	> 133	> 128	> 10	> 128
O=C1O/C(=C\c2cc(Br)c(O)c(Br)c2)C(c2cc(Br)c(O)c(Br)c2)=C1C(=O)c1cc(Br)c(O)c(Br)c1 [CADIOLIDE B]	> 128	–	64	61	> 128	> 128	103	> 128	–	> 128
CC1(C)S[C@@H]2[C@H](NC(=O)[C@H](N)c3ccccc3)C(=O)N2[C@H]1C(=O)O [AMPICILLIN]	0.5	–	0.03	–	0.5	–	–	0.06	–	0.03
COc1c(Br)cc([C@H](O)C2=C(c3cc(Br)c(O)c(Br)c3)/C(=C/c3ccc(O)c(Br)c3)OC2=O)cc1Br	32	–	8	> 159	> 128	> 128	> 159	8	–	4
O=C1C=C(c2cc(Br)c(O)c(Br)c2)/C(=C/c2cc(Br)c(O)c(Br)c2)O1 [RUBROLIDE A]	> 128	–	32	> 216	> 128	> 128	216	32	–	16
O=C1O/C(=C\c2cc(Br)c(O)c(Br)c2)C(c2ccc(O)c(Br)c2)=C1C(=O)c1cc(Br)c(O)c(Br)c1 [CADIOLIDE E]	> 128	–	> 128	27	> 128	> 128	> 162	> 128	–	> 128
O=C1C=C(c2cc(Br)c(O)c(Br)c2)C(=O)C1(c1cc(Br)c(O)c(Br)c1)c1cc(Br)c(O)c(Br)c1	> 128	> 10	4	34	> 128	> 128	88	64	> 10	> 128
COc1ccc(/C=C2\OC(=O)C([C@@H](O)c3cc(Br)c(OC)c(Br)c3)=C2c2cc(Br)c(O)c(Br)c2)cc1Br	64	–	32	150	> 128	> 128	> 156	64	–	8
COc1ccc(C[C@@]2(O)OC(=O)C([C@@H](O)c3cc(Br)c(OC)c(Br)c3)=C2c2cc(Br)c(O)c(Br)c2)cc1Br	64	> 10	16	63	> 128	> 128	> 153	16	> 10	16
COC(=O)C1=C(c2cc(Br)c(O)c(Br)c2)C(=O)[C@](c2ccc(O)c(Br)c2)(c2cc(Br)c(O)c(Br)c2)C1=O	> 128	> 10	16	49	> 128	> 128	70	64	> 10	64
COC(=O)C1=C(c2cc(Br)c(O)c(Br)c2)C(=O)C(c2cc(Br)c(O)c(Br)c2)(c2cc(Br)c(O)c(Br)c2)C1=O	64	> 10	16	22	> 128	> 128	67	64	> 10	> 128
O=C1O/C(=C\c2ccc(O)c(Br)c2)C(c2ccc(O)c(Br)c2)=C1C(=O)c1cc(Br)c(O)c(Br)c1 [CADIOLIDE C]	> 128	–	32	17	> 128	> 128	59	64	–	> 128
COC(=O)C1=C(c2cc(Br)c(O)c(Br)c2)[C@](OC)(c2ccc(O)c(Br)c2)O[C@@]1(C(=O)OC)c1cc(Br)c(O)c(Br)c1	8	> 10	64	> 145	> 128	> 128	> 145	64	> 10	64
O=C(O)CC[N+](=O)[O-]	–	–	–	17	–	–	–	–	–	–
COC(=O)C1=C(c2cc(Br)c(O)c(Br)c2)C(=O)[C@](OC)(c2ccc(O)c(Br)c2)O[C@]1(OC)c1cc(Br)c(O)c(Br)c1	> 128	> 10	64	127	> 128	> 128	> 145	> 128	> 10	> 128
O=C1O/C(=C\c2ccc(O)c(Br)c2)C(c2cc(Br)c(O)c(Br)c2)=C1C(=O)c1cc(Br)c(O)c(Br)c1 [CADIOLIDE D]	> 128	–	64	11	> 128	> 128	34	> 128	–	> 128
COC(=O)C1=C(c2ccc(O)c(Br)c2)C(=O)[C@](c2ccc(O)c(Br)c2)(c2cc(Br)c(O)c(Br)c2)C1=O	> 128	> 10	32	47	> 128	> 128	102	64	> 10	8
CN(C)[C@@H]1C(O)=C(C(N)=O)C(=O)[C@@]2(O)C(O)=C3C(=O)c4c(O)cccc4[C@@](C)(O)[C@H]3C[C@@H]12 [TETRACYCLINE]	–	–	–	–	–	0.25	–	–	–	–
